Measured values from paper PMC6479099, “Aminoguanidines: New leads for treatment of Giardia duodenalis infection” (International Journal for Parasitology: Drugs and Drug …, 2019).
≈ marks a conversion by molar mass, not a printed value. Where two headings read alike, the source gives them in different places.

How the values were obtained:
[1] = test system: Giardia duodenalis BAH2c2 strain, assemblage A; test: Resazurin reduction assay, assemblage A isolate; format: cell-based; conditions: for MLC (minimum lethal concentration), Assemblage A: concentration at which no metabolism of resazurin was observed; for IC50: Giardia duodenalis, 24 h, read-out: IC50, Assemblage A
Description: (§1) G. duodenalis (BAH2c2 and BAH12 strain) was cultivated according to the method of Clark and Diamond in Keister's modified TYI-S-33 medium, supplemented with heat inactivated foetal bovine serum (Hyclone™, Thermo Fisher Scientific, Scoresby, Victoria, Australia) at 37 °C in plastic 9 mL screw-capped test tubes (nunc, Thermo Fisher Scientific, Scoresby, Victoria, Australia). Subcultures were performed once a confluent monolayer was observed, approximately 2–3 times per week ([Clark and Diamond, 2002]).
(§2) The in-vitro compound efficacy was determined using a resazurin reduction assay as previously described ([Benere et al., 2007]). The media of confluent cultures was replaced with fresh media and the cultures were placed on ice for 40 min to detach trophozoites. Trophozoites were enumerated using a haemocytometer and 50 000 trophozoites were added to each test well of a 96 well plate. Doubling or tripling dilutions of the test compounds were added to wells beginning at 25 or 50 μM compound concentration (previously prepared in DMSO). Metronidazole and DMSO (vehicle only) were used as controls. Plates were incubated under anaerobic conditions, using anaerobic gas generating sachets, (AnaeroGen, Thermo Fisher Scientific, Scoresby, Victoria, Australia) for 24 h at 37 °C. After incubation the media was removed and replaced with an equal volume of warm PBS. Resazurin (Alamarblue, Thermo Fisher Scientific, Scoresby, Victoria, Australia) was then added at 10% of the total volume of the wells. Plates were further incubated (1.5 h) for colour development and absorbance read at 570 nm and 630 nm. The percentage resazurin reduction was then calculated using the following formula:((εoxi630 x A570) – (εoxi570 x A630))/((εred570 x C630)-([…])) x 100Where: εoxi630 = 34798, εoxi570 = 80586, A570 = absorbance at 570 nm, A630 = absorbance at 630 nm, εred570 = 155677, εred630 = 5494, C630 = absorbance of negative control well at 630 nm and C570 = absorbance of negative control well at 570 nm.
(§3) For the resazurin reduction assay the mean and standard error of the mean were determined with each assay completed in triplicate. The IC50 was calculated using the log (inhibitor) vs. normalised response – variable slope function in Graphpad Prism. For the adherence assay mean and standard error of the mean were calculated and data analysed using an unpaired t-test, relative to untreated control.
(§4) The IC50 of each compound was determined using a resazurin reduction assay, which measures the metabolic activity of cells, using the log (inhibitor) vs. normalised response – variable slope function in Graphpad Prism. The compounds were tested against an assemblage A (BAH2c2, 24 h) and an assemblage B (BAH12, 24 h) isolate (Table 1). […] The effect of the compounds on the proliferation of Giardia trophozoites (BAH2c2) was also determined.
Absorbance was measured (630 and 570 nm), percent reduction of resazurin calculated and data presented as a percentage of the growth control. Treatment groups are: square - metronidazole; triangle –NCL 099; diamond - robenidine; and circle - NCL 062. Error ± SEM, n = 3. Data represents a typical experiment. Note the break in the x-axis indicates a change in the scale of drug concentration.

[2] = test system: Giardia trophozoites (BAH2c2); test: Proliferation of Giardia trophozoites (resazurin, 96 h); format: cell-based, Giardia duodenalis; conditions: read-out: IC50prol, Assemblage A (50% inhibition in the proliferation assay)
Description: The effect of the compounds on the proliferation of Giardia trophozoites was determined following the protocol outlined above, with the following modifications. The number of trophozoites was decreased to 1000 per well and the cells were incubated in the presence of each compound for 96 h at 37 °C.
as §4

giardiasis = test system: giardiasis; design: method as in Wright et al., 2003; conditions: ref Wright et al., 2003; cited from earlier work
AT region of DNA = test system: AT region of DNA; design: method as in Nguyen et al., 2002; conditions: ref Nguyen et al., 2002; cited from earlier work
[3] = test system: Giardia duodenalis BAH12, assemblage B; test: Resazurin reduction assay, assemblage B isolate; format: cell-based; conditions: BAH12, 24 h; for IC50: Giardia duodenalis, resazurin metabolic assay
Description: as §1, §2, §3, §4

[4] = test system: Giardia duodenalis trophozoites; test: Modified adherence assay; format: cell-based; conditions: 4 μM, 5 h exposure
Description: (§5) A second screening method, based on counting adherent trophozoites, was developed and used to validate the primary screen method, modified from earlier adherence assay protocols ([Crouch et al., 1986]). The assay was prepared in 24 well plates with plastic coverslips placed in the bottom. Trophozoites were prepared as above by placing on ice and ∼5 × 10^5 cells/mL were added to each well. Drugs prepared in DMSO were added at the required concentration, with the DMSO concentration never exceeding 1%. Assay plates were incubated for 5 h at 37 °C under anaerobic conditions, the media removed and cells adhering to the coverslips were fixed with glutaraldehyde or methanol. Once the coverslips were dry, cells were stained with a Romanowsky stain variant (Rapid stain), fixed to a glass slide and imaged at 10x or 100x magnification. Images (10x magnification) were processed with DotCount v1.2 software (http://reuter.mit.edu/, 2008–2012 ^© Martin Reuter) to count the number of cells present and data analysed using GraphPad Prism version 6.00 for Windows, GraphPad Software, La Jolla California USA, www.graphpad.com. Images (100x magnification) were assessed for obvious morphological changes.
The results for the in vitro drug efficacy studies were analysed using GraphPad Prism version 6.00 for Windows, GraphPad Software, La Jolla California USA, www.graphpad.com. For the resazurin reduction assay the mean and standard error of the mean were determined with each assay completed in triplicate. The IC50 was calculated using the log (inhibitor) vs. normalised response – variable slope function in Graphpad Prism. For the adherence assay mean and standard error of the mean were calculated and data analysed using an unpaired t-test, relative to untreated control.
Fig. 3 Inhibition of adherence of Giardia duodenalis by metronidazole (Mz), robenidine, NCL 062 and NCL 099. Cells were exposed to the compounds for 5 h before staining. Stained cells were imaged at 10x magnification and counted using DotCount™ software. Each assay was completed in triplicate and 5 images taken per sample. Top. Number of adherent trophozoites after exposure to 4 μM of each compound for 5 h; Bottom. An example of the Dotcount software identifying trophozoites at higher magnification. Left: stained trophozoites, Right: highlighted trophozoites identified by the Dotcount software. Each highlighted cell is counted individually. Error ± SEM. * p-value <0.05, ** p-value <0.0001.

[5] = test system: G. duodenalis trophozoites; test: Giardia recovery assay; format: cell-based, Giardia duodenalis; conditions: 5 h at 5x the IC50, counts at 24 and 48 h post exposure
Description: G. duodenalis trophozoites were harvested on ice as outlined above and 5 × 10^5 cells/mL were added to 1.5 mL centrifuge tubes. […] After exposure cells were collected by placing tubes on ice for 40 min followed by centrifugation at 900×g for 5 min. The supernatant was removed and cells were resuspended in 8 mL of fresh media (in a 9 mL culture tube). The number of trophozoites was counted using a haemocytometer and cells were incubated for 48 h with cell numbers being determined at 24 and 48 h.
Fig. 7 Recovery assay of Giardia duodenalis exposed to robenidine and metronidazole. Giardia trophozoites were exposed to robenidine or metronidazole for 5 h at 5x the IC50. Key: closed circle – growth control, triangle – metronidazole, square – robenidine, open circle – NCL 062, diamond – NCL 099. Cell numbers were determined at 24 and 48 h post exposure. Error ± SD.

[6] = test system: Giardia duodenalis BAH2c2 strain, assemblage A; test: Resazurin reduction assay, assemblage A isolate; format: cell-based
[7] = In vitro cytotoxicity, murine macrophage cells; conditions: mouse, RAW 264.7 murine macrophage cells
Giardia trophozoites = test: Morphology of stained trophozoites at 100x magnification; format: cell-based, Giardia duodenalis
Description: as §5
Fig. 4 Morphological effect of Robenidine and NCL 099 on Giardia trophozoites. Giardia trophozoites were exposed to each compound for 24 h before fixation with glutaraldehyde and staining following the Diff quik protocol. A-control cells, B – cells treated with metronidazole (IC50, 2 μM), C- robendine treated cells (IC50, 2 μM), D – NCL 099 treated cells (IC50, 3 μM), E − NCL 099 treated cells (2 x IC50).

[8] = BAH2c2, 24 h, resazurin metabolic assay
[9] = BAH2c2, 1000 trophozoites per well

CCCSc1ccc2nc(NC(=O)OC)[nH]c2c1 [Albendazole]
MLC (minimum lethal concentration), Assemblage A ([1]; BAH2c2, 24 h): 0.02 to 0.07 µM | IC50 [1]: < 20 nM | IC50 [2]: 800 ± 700 nM | Reported efficacy (giardiasis): 62–95%

Cl.Cl.Cl.N=C(N)c1cccc(/C=N/N=C(\N)N/N=C/c2cccc(C(=N)N)c2)c1 [CGP 40215A]
Binding to the AT region of DNA (AT region of DNA): strong bond

Cc1ncc([N+](=O)[O-])n1CCO [Metronidazole]
MLC (minimum lethal concentration), Assemblage A ([1]; BAH2c2, 24 h): 2.8 µM (≈ 0.479 µg/mL) | IC50 [1, 8]: 2000 ± 1000 nM | MLC, Assemblage B [3]: 16.6 µM (≈ 2.84 µg/mL) | IC50 [3]: 3800 ± 500 nM | IC50 [2, 9]: 1700 ± 2000 nM | Effect on adherence of trophozoites [4]: no significant effect on cell adherence | Recovery of trophozoites after short-term exposure [5]: did not have any permanent effects | Time required to exhibit inhibitory activity [6]: 24 h | Treatment success rate (giardiasis): 80–90%

C/C(=N\NC(=N)N/N=C(\C)c1ccc(Cl)cc1)c1ccc(Cl)cc1.Cl [NCL 062, (E)-N'-((E)-1-(4-chlorophenyl)ethylidene)-2-(1-(4-chlorophenyl)ethylidene)hydrazine-1-carboximidhydrazide hydrochloride]
MLC (minimum lethal concentration), Assemblage A ([1]; BAH2c2, 24 h): 0.9 µM | IC50 [1, 8]: 800 ± 600 nM | MLC, Assemblage B [3]: 3.1 µM | IC50 [3]: 1800 ± 0.8 nM | IC50 [2, 9]: 2000 ± 1300 nM | Effect on adherence of trophozoites [4]: complete inhibition of adherence | Recovery of trophozoites after short-term exposure [5]: unable to recover | GI50 [7]: 4000 nM

CC(C)(C)c1ccc(/C=N/NC(=N)N/N=C/c2ccc(C(C)(C)C)cc2)cc1.Cl [NCL 099, N′,2-bis((E)-4-(tert-butyl)benzylidene)hydrazine-1-carboximidhydrazide hydrochloride]
MLC (minimum lethal concentration), Assemblage A ([1]; BAH2c2, 24 h): 8.3 µM | IC50 [1, 8]: 3000 ± 300 nM | MLC, Assemblage B [3]: 5.5 µM | IC50 [3]: 3300 ± 200 nM | IC50 [2, 9]: 11100 ± 800 nM | Effect on adherence of trophozoites [4]: significantly affected adherence of trophozoites at 4 μM, but did not completely inhibit adherence | Recovery of trophozoites after short-term exposure [5]: able to recover after short-term exposure but growth was slower | Morphological effect on stained trophozoites at 2 x the IC50 (Giardia trophozoites; 2 x IC50, 100 x magnification): disintegration of the cell membrane | Morphological effect on stained trophozoites at the IC50 (Giardia trophozoites; at IC50, 100 x magnification): decrease in the membrane stain intensity | GI50 [7]: 7300 nM

CCS(=O)(=O)CCn1c([N+](=O)[O-])cnc1C [tinidazole]
Treatment success rate (giardiasis): 80–90%
